TGI and GI50 data for 14 compounds are collected here from PubChem BioAssay (NCI).

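Dose response: 5 concentrations. Exposure: 48 h. Format: 96-well plates. Endpoint: linear interpolation; highest concentration if not reached. At the GI50, growth is halved. TGI marks complete inhibition of growth.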

Test systems include SK-MEL-2 melanoma; HOP-62 NSCLC; UACC-257 melanoma; HL-60(TB) leukemia; UACC-62 melanoma; 786-0 renal; MOLT-4 leukemia; HOP-92 NSCLC; SK-MEL-5 melanoma; NCI-H226 lung.
Assay in all cases: inhibition of tumour cell growth, NCI panel, 48 h

Take `Cc1cc2c(c(C#N)c1C)NC(=O)CCC2=O`: the TGI in the assay with SK-MEL-2 melanoma, in the assay with HOP-62 NSCLC, in the assay on UACC-257 melanoma, in the assay on HL-60(TB) leukemia, in the assay on UACC-62 melanoma and with 786-0 renal was > 100 µM throughout. The TGI with MOLT-4 leukemia is > 100 µM.
On to `N#Cc1c(Sc2ccccc2N)cccc1Sc1ccccc1N`, for which the GI50 was 31 µM in the assay on HOP-92 NSCLC; 21.3 µM with UACC-257 melanoma; 34.7 µM in the assay with SK-MEL-5 melanoma; 16.4 µM with HL-60(TB) leukemia; 14.7 µM in the assay on UACC-62 melanoma; 37.8 µM in the assay with 786-0 renal. Also, the GI50 with MOLT-4 leukemia was 22.2 µM; in the assay on NCI-H226 lung, 96.8 µM.
Regarding `O=C1C(=O)N(C(=O)c2ccc(Cl)c(Cl)c2)c2ccccc21`, the TGI with SK-MEL-5 melanoma, in the assay on HL-60(TB) leukemia, with UACC-62 melanoma, in the assay on 786-0 renal, in the assay with MOLT-4 leukemia and in the assay with NCI-H226 lung was > 100 µM in each case.
Regarding `Cc1cc(C)nc(NS(=O)(=O)c2ccc(Nc3c4ccccc4nc4c(C(=O)Nc5ccc(S(=O)(=O)N=C(N)N)cc5)ccc(Cl)c34)cc2)n1`, the TGI is 54.8 µM in the assay with HOP-62 NSCLC; > 100 µM with UACC-257 melanoma; > 100 µM with SK-MEL-5 melanoma; 54 µM in the assay on HL-60(TB) leukemia; 36.9 µM in the assay with UACC-62 melanoma; > 100 µM in the assay on 786-0 renal. Further, the values for the TGI with MOLT-4 leukemia and with NCI-H226 lung were 64.8 µM and 58.1 µM, respectively.
On to `Cc1cnc2c(C)ccc([N+](=O)[O-])c2c1NCCCN(C)C`, for which the TGI in the assay with SK-MEL-2 melanoma, with HOP-62 NSCLC, in the assay on UACC-257 melanoma, in the assay with HL-60(TB) leukemia, in the assay on 786-0 renal and in the assay with MOLT-4 leukemia was > 100 µM in each case. In addition, the TGI in the assay on NCI-H226 lung is > 100 µM.
In the case of `O=[N+]([O-])c1ccc(C(c2c[nH]c3ccccc23)c2c[nH]c3ccccc23)cc1`, the TGI in the assay on SK-MEL-2 melanoma is 20.1 µM; in the assay with HOP-62 NSCLC it was 30.3 µM; in the assay on UACC-257 melanoma, 9.79 µM; with SK-MEL-5 melanoma, 20.2 µM; with HL-60(TB) leukemia, 49 µM; with UACC-62 melanoma, 26.5 µM. Also, the figures for the TGI in the assay on 786-0 renal, with MOLT-4 leukemia and in the assay on NCI-H226 lung were 35.2 µM, 40.9 µM and 32.1 µM, respectively.
Turning to `Nc1nc(SCc2ccccn2)c2ncn(C3CCCC3)c2n1`, the TGI in the assay with SK-MEL-2 melanoma, in the assay with HOP-62 NSCLC, in the assay with UACC-257 melanoma, in the assay with SK-MEL-5 melanoma, in the assay on HL-60(TB) leukemia and in the assay on UACC-62 melanoma was > 100 µM in each case. In addition, the TGI in the assay on 786-0 renal and in the assay on NCI-H226 lung was > 100 µM each time.
For `COC(=O)C1CC2(CC3=C1CCCC3)OCCO2` (stereo not given), the TGI with SK-MEL-2 melanoma, in the assay on HOP-92 NSCLC, in the assay on HOP-62 NSCLC, in the assay with UACC-257 melanoma, in the assay with SK-MEL-5 melanoma and in the assay on HL-60(TB) leukemia was > 100 µM in each case. Also, the TGI in the assay on UACC-62 melanoma and in the assay with 786-0 renal was > 100 µM throughout.
In the case of `N#CCC1COc2ccccc2O1` (stereo not given), the TGI in the assay with HOP-92 NSCLC, in the assay on HOP-62 NSCLC, in the assay on UACC-257 melanoma, in the assay on SK-MEL-5 melanoma, in the assay on HL-60(TB) leukemia and in the assay with UACC-62 melanoma was > 10 µM each time. The TGI with 786-0 renal and in the assay with MOLT-4 leukemia was > 10 µM each time.
`C=C1C(=O)O[C@H]2[C@H]1CC/C(Cn1cc(CNC(=O)Cc3cn(C(=O)c4ccc(Cl)cc4)c4ccc(OC)cc34)nn1)=C\CC[C@@]1(C)O[C@@H]21`: the GI50 in the assay on SK-MEL-2 melanoma is 2.01 µM; in the assay on HOP-92 NSCLC, 1.21 µM; in the assay on HOP-62 NSCLC, 3.91 µM; with UACC-257 melanoma, 1.75 µM; in the assay on SK-MEL-5 melanoma, 1.77 µM; in the assay with UACC-62 melanoma it was 1.63 µM. For the same compound, the GI50 in the assay with 786-0 renal is 1.59 µM; with MOLT-4 leukemia, 2 µM; in the assay with NCI-H226 lung, 1.76 µM. Further, the TGI in the assay with SK-MEL-2 melanoma was found to be 4.18 µM; in the assay on HOP-92 NSCLC it was 2.65 µM; with HOP-62 NSCLC, 15.1 µM; in the assay with UACC-257 melanoma, 3.39 µM; in the assay on SK-MEL-5 melanoma, 3.28 µM; in the assay with UACC-62 melanoma, 3.18 µM. Also, the TGI in the assay on 786-0 renal is 3.02 µM; in the assay with MOLT-4 leukemia it was 6.16 µM; in the assay on NCI-H226 lung, 3.41 µM.
As for `CC(=O)n1c(COS(C)(=O)=O)nc2ccccc21`, the TGI in the assay with SK-MEL-2 melanoma, in the assay on HOP-92 NSCLC, with HOP-62 NSCLC, with UACC-257 melanoma, with SK-MEL-5 melanoma and with UACC-62 melanoma was > 100 µM in each case. Moreover, the TGI in the assay with 786-0 renal and in the assay on NCI-H226 lung was > 100 µM throughout.
`N#CCC(=O)Nc1cccc(C(F)(F)F)c1`: the TGI in the assay on SK-MEL-2 melanoma, in the assay with HOP-62 NSCLC, in the assay on UACC-257 melanoma, in the assay with SK-MEL-5 melanoma, with HL-60(TB) leukemia and with UACC-62 melanoma was > 100 µM throughout. In addition, the TGI with 786-0 renal, in the assay on MOLT-4 leukemia and with NCI-H226 lung was > 100 µM each time.
For the compound `COc1cccc2cc(C)c(C(=O)c3ccccc3)nc12`, the TGI in the assay on SK-MEL-2 melanoma, in the assay on HOP-62 NSCLC, in the assay with UACC-257 melanoma, in the assay on SK-MEL-5 melanoma, with UACC-62 melanoma and with 786-0 renal was > 100 µM in each case. Also, the TGI in the assay with MOLT-4 leukemia and in the assay on NCI-H226 lung was > 100 µM throughout.
Consider `COc1cc2c3c(n(C)c(=O)c2cc1OC)-c1cc2c(cc1/C3=C\CCCCCN)OCO2`, for which the GI50 in the assay on SK-MEL-2 melanoma was 31 µM; in the assay with HOP-92 NSCLC, 4.03 µM; with HOP-62 NSCLC it was 0.612 µM; with UACC-257 melanoma it was 16.8 µM; with SK-MEL-5 melanoma, 3.12 µM; with HL-60(TB) leukemia, 2.92 µM. The values for the GI50 with UACC-62 melanoma, in the assay with 786-0 renal and in the assay with NCI-H226 lung were 2.56 µM, 0.979 µM and 0.601 µM, respectively. Moreover, the TGI in the assay on SK-MEL-2 melanoma is > 100 µM; in the assay on HOP-92 NSCLC, 29 µM; in the assay with HOP-62 NSCLC, > 45.9 µM; in the assay with UACC-257 melanoma, 45.9 µM; with SK-MEL-5 melanoma it was 38.2 µM; with HL-60(TB) leukemia, 21.9 µM. Moreover, the results for the TGI with UACC-62 melanoma, in the assay on 786-0 renal and in the assay on NCI-H226 lung were 25.3 µM, > 50.9 µM and 13.7 µM, respectively.
